# Results as given in patent publication US20160002141A1, “SYNTHESIS OF CALEBIN-A AND ITS BIOLOGICALLY ACTIVE ANALOGS” (priority 2014, published 2016).
row,melting point [°C],Structure (SMILES)
1,138 to 140,"COc1cc(/C=C/C(=O)COC(=O)/C=C/c2ccc(O)c(OC)c2)ccc1O [Example 10a, Feruloylmethyl ferulate]"
2,289 to 291,"O=C(/C=C/c1ccc(O)cc1)COC(=O)/C=C/c1ccc(O)cc1 [Example 10d, 4-Hydroxycinnamoylmethyl 4-hydroxycinnamate]"
3,175.7 to 177.7,"COc1cc(/C=C/C(=O)OCC(=O)/C=C/c2ccc(O)cc2)ccc1O [Example 10c, 4-Hydroxycinnamoylmethyl ferulate]"
4,181.4 to 183.4,"COc1cc(/C=C/C(=O)COC(=O)/C=C/c2ccc(O)cc2)ccc1O [Example 10b, Feruloylmethyl 4-hydroxycinnamate]"
